This is an account of results in patent publication US8106034B2, “Angiotensin II receptor antagonists” (Merck Sharp & Dohme Corp., priority 2008, dated 2012).

Each structure is given as a SMILES string.

For this test, the system named is isolated rabbit thoracic aorta preparations. The experiment in a line: Vessel relaxation in isolated rabbit thoracic aorta preparations. The note with it: Oryctolagus cuniculus; in vitro, rabbit aortic rings precontracted with noradrenaline, functional endothelium present. The protocol: The ability of the compounds to induce vasorelaxation was tested in vitro in isolated rabbit thoracic aorta preparations (Wanstall J. C. et al., Br. J. Pharmacol., 134:463-472, 2001). Male New Zealand rabbits were anaesthetized with thiopental-Na (50 mg/kg, iv), sacrificed by exsanguinations and then the thorax was opened and the aorta dissected. Aortic ring preparations (4 mm in length) were set up in physiological salt solution (PSS) at 37° C. in small organ chambers (5 ml). The composition of PSS was (mM): NaCl 130, NaHCO3 14.9, KH2PO4 1.2, MgSO4 1.2, HEPES 10, CaCl2, ascorbic acid […] and glucose 1.1 (95% O2/5% CO2; pH 7.4). Each ring was mounted under 2 g passive tension. Isometric tension was recorded with a Grass transducer (Grass FT03) attached to a BIOPAC MP150 System. Preparations were allowed to equilibrate for 1 h, and then contracted submaximally with noradrenaline (NA, 1 μM) and, when the contraction was stable, acetylcholine (ACh, 10 μM) was added. A relaxant response to ACh indicated the presence of a functional endothelium. […] When a stable precontraction was reached, a cumulative concentration-response curve to either of the vasorelaxant agents was obtained in the presence of a functional endothelium. Each arterial ring was exposed to only one combination of inhibitor and vasorelaxant. […]
Examples 3 and 5 were evaluated for vessel relaxation.

As to `CCCCc1nc(Cl)c(C(=O)OCO/N=[N+](\[O-])N2CCCCC2CO)n1Cc1ccc(-c2ccccc2-c2nnn[nH]2)cc1` (centres unmarked) [Example 3, O^2-({[(2-butyl-4-chloro-1-{[2′-(1H-tetrazol-5-yl)biphenyl-4-yl]methyl}-1H-imidazol-5-yl)carbonyl]oxy}methyl)1-[2-(hydroxymethyl)piperidin-1-yl]diazen-1-ium-1,2-diolate], the concentration for a half-maximal effect (EC50) is 5.3 µM.

Regarding `CCCCc1nc(Cl)c(C(=O)OCO/N=[N+](\[O-])N2CCC[C@H]2C(=O)O)n1Cc1ccc(-c2ccccc2-c2nnn[nH]2)cc1` [Example 5, O^2-({[(2-butyl-4-chloro-1-{[2′-(1H-tetrazol-5-yl)biphenyl-4-yl]methyl}-1H-imidazol-5-yl)carbonyl]oxy}methyl)1-[2S-(carboxylato)pyrrolidin-1-yl]diazen-1-ium-1,2-diolate], the half-maximal effective concentration (EC50) turned out to be 18.7 µM.

One may read the EC50 as the concentration needed to bring the measured effect to its halfway point.
